Data reported in patent US10947213B1 (Merck Patent GmbH, priority 2015, dated 2021).
Counter-ions that a name gives are not always drawn.

Each compound was assayed against T1, TLR7/NFKb HEK cells (Homo sapiens, UniProt Q9NYK1) (assay: HEK Cell Assay (TLR7/NFKb reporter, Steady-Glo luciferase readout)). Settings: 30 min compound preincubation, then R*48 agonist for 5 hours, read-out: Potency.
T1 construct: expressed in transfected cells; host or cells: HEK cells (TLR7/NFKb reporter line)
T1 sequence (Q9NYK1 27-1049): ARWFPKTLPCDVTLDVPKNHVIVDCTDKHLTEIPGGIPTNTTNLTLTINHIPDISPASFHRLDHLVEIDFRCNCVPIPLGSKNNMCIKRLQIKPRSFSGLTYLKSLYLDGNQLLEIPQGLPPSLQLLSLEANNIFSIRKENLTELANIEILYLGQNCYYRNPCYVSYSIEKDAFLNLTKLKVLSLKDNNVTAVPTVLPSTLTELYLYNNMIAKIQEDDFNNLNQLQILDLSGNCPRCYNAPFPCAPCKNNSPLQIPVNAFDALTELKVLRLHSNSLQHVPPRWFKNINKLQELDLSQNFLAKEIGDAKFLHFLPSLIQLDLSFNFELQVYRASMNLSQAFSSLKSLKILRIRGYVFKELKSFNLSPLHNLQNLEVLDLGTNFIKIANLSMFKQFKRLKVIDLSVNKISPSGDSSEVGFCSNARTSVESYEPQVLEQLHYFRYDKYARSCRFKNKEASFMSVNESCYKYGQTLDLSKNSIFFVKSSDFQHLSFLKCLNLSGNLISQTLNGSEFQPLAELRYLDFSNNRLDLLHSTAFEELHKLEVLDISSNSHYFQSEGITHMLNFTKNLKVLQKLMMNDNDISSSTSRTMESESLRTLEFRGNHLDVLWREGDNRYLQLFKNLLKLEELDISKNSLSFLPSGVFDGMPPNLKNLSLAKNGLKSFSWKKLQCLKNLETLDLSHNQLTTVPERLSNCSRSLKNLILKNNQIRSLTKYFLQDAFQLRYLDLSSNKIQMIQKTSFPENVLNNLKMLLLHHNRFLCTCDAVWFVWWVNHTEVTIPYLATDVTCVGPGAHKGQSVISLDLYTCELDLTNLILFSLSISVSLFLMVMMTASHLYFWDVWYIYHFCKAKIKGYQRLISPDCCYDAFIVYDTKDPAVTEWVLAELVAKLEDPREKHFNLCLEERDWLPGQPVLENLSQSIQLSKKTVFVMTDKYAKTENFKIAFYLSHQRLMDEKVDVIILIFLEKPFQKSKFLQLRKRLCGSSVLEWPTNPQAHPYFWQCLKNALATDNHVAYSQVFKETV
Type: cell-based
Procedure, shortened: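 Steady-Glo luminescence after 5 h stimulation with R*48 agonist, following 30 min compound preincubation. Assay run in HEK cells carrying a TLR7/NFKb luciferase reporter, plated at 5000 cells/well and grown 24 h at 37° C (10% CO2) before treatment.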

SMILES | IC50
CCN1CCC(NC(=O)C2CN(c3ccc(C#N)c4ncccc34)CC(F)(F)C2)CC1 (stereo not drawn) [Compound 532, 1-(8-Cyano-quinolin-5-yl)-5,5-difluoro-piperidine-3-carboxylic Acid (1-ethyl-piperidin-4-yl)-amide] | < 1 µM
CC1CC(C(=O)NCC2CCN(C)CC2)CN(c2ccc(C#N)c3nccnc23)C1 (stereo not drawn) [Compound 539, 1-(8-Cyano-quinoxalin-5-yl)-5-methyl-piperidine-3-carboxylic acid (1-methyl-piperidin-4-ylmethyl)-amide] | < 1 µM
CCN1CCC(NC(=O)C2CC(C)CN(c3ccc(C#N)c4nccnc34)C2)CC1 (stereo not drawn) [Compound 540, 1-(8-Cyano-quinoxalin-5-yl)-5-methyl-piperidine-3-carboxylic acid (1-ethyl-piperidin-4-yl)-amide] | < 1 µM
CC1CC(C(=O)NC2CCCN(C)C2)CN(c2ccc(C#N)c3nccnc23)C1 (stereo not drawn) [Compound 543, cis-1-(8-cyanoquinoxalin-5-yl)-5-methyl-N-(1-methyl-3-piperidyl) piperidine-3-carboxamide] | < 1 µM
CC1CC(C(=O)N2CCN(C)CC2)CN(c2ccc(C(F)(F)F)c3ncccc23)C1 (stereo not drawn) [Compound 549, (4-Methyl-piperazin-1-yl)-[5-methyl-1-(8-trifluoromethyl-quinolin-5-yl)-piperidin-3-yl]-methanone] | 1 to 10 µM
C[C@H]1C[C@@H](N)CN(c2ccc(C#N)c3nsnc23)C1 [Compound 552, 7-((3R,5S)-3-Amino-5-methyl-piperidin-1-yl)-benzo[1,2,5]thiadiazole-4-carbonitrile hydrochloride] | < 1 µM
Cc1ncc(N2C[C@@H](C)C[C@@H](N)C2)c2cccnc12 [Compound 553, (3R,5S)-5-methyl-1-(8-methyl-1,7-naphthyridin-5-yl)piperidin-3-amine] | < 1 µM
Cc1ncc(N2C[C@@H](C)C[C@@H](NC(=O)CC3CCN(C)CC3)C2)c2cccnc12 [Compound 554, N-[(3R,5S)-5-Methyl-1-(8-methyl-[1,7]naphthyridin-5-yl)-piperidin-3-yl]-2-(1-methyl-piperidin-4-yl)-acetamide] | < 1 µM
Cc1ncc(N2C[C@@H](C)C[C@@H](NC(=O)CC(C)(C)O)C2)c2cccnc12 [Compound 555, 3-Hydroxy-3-methyl-N-[(3R,5S)-5-methyl-1-(8-methyl-[1,7]naphthyridin-5-yl)-piperidin-3-yl]-butyramide] | 1 to 10 µM
Cc1ncc(N2C[C@@H](C)C[C@@H](NC(=O)CC3CN(C)C3)C2)c2cccnc12 [Compound 556, 2-(1-Methyl-azetidin-3-yl)-N-[(3R,5S)-5-methyl-1-(8-methyl-[1,7]naphthyridin-5-yl)-piperidin-3-yl]-acetamide] | 1 to 10 µM
Cc1ncc(N2C[C@@H](C)C[C@@H](NC(=O)CC3CN(C(=O)OC(C)(C)C)C3)C2)c2cccnc12 [Compound 557, 3-{[(3R,5S)-5-Methyl-1-(8-methyl-[1,7]naphthyridin-5-yl)-piperidin-3-ylcarbamoyl]-methyl}-azetidine-1-carboxylic Acid tert-butyl ester] | 1 to 10 µM
Cc1ncc(N2C[C@@H](C)C[C@@H](NC(=O)[C@H](O)C3CC3)C2)c2cccnc12 [Compound 558, (R)-2-Cyclopropyl-2-hydroxy-N-[(3R,5S)-5-methyl-1-(8-methyl-[1,7]naphthyridin-5-yl)-piperidin-3-yl]-acetamide] | 1 to 10 µM
Cc1ncc(N2C[C@@H](C)C[C@@H](NC(=O)[C@@H](O)C3CC3)C2)c2cccnc12 [Compound 559, (S)-2-Cyclopropyl-2-hydroxy-N-[(3R,5S)-5-methyl-1-(8-methyl-[1,7]naphthyridin-5-yl)-piperidin-3-yl]-acetamide] | 1 to 10 µM
Cc1ncc(N2C[C@@H](C)C[C@@H](NC(=O)CC3CCN(C)C3)C2)c2cccnc12 (stereo partly drawn) [Compound 560, N-[(3R,5S)-5-Methyl-1-(8-methyl-[1,7]naphthyridin-5-yl)-piperidin-3-yl]-2-(1-methyl-pyrrolidin-3-yl)-acetamide] | < 1 µM
Cc1ncc(N2C[C@@H](C)C[C@@H](NC(=O)[C@H](N)C3CC3)C2)c2cccnc12 [Compound 561, (R)-2-Amino-2-cyclopropyl-N-[(3R,5S)-5-methyl-1-(8-methyl-[1,7]naphthyridin-5-yl)-piperidin-3-yl]-acetamide] | < 1 µM
Cc1ncc(N2C[C@@H](C)C[C@@H](NC(=O)[C@@H](N)C3CC3)C2)c2cccnc12 [Compound 562, (S)-2-Amino-2-cyclopropyl-N-[(3R,5S)-5-methyl-1-(8-methyl-[1,7]naphthyridin-5-yl)-piperidin-3-yl]-acetamide] | < 1 µM
Cc1ncc(N2C[C@@H](C)C[C@@H](NC(=O)CC3(N)CCCCC3)C2)c2cccnc12 [Compound 563, 2-(1-Amino-cyclohexyl)-N-[(3R,5S)-5-methyl-1-(8-methyl-[1,7]naphthyridin-5-yl)-piperidin-3-yl]-acetamide] | < 1 µM
Cc1ncc(N2C[C@@H](C)C[C@@H](NC(=O)CCC(N)=O)C2)c2cccnc12 [Compound 564, N-[(3R,5S)-5-Methyl-1-(8-methyl-[1,7]naphthyridin-5-yl)-piperidin-3-yl]-succinamide] | > 10 µM
CNC(=O)CCC(=O)N[C@@H]1C[C@H](C)CN(c2cnc(C)c3ncccc23)C1 [Compound 565, N-Methyl-N′-[(3R,5S)-5-methyl-1-(8-methyl-[1,7]naphthyridin-5-yl)-piperidin-3-yl]-succinamide] | 1 to 10 µM
Cc1ncc(N2C[C@@H](C)C[C@@H](NC(=O)CCC(=O)N3CCC3)C2)c2cccnc12 [Compound 566, 4-Azetidin-1-yl-N-[(3R,5S)-5-methyl-1-(8-methyl-[1,7]naphthyridin-5-yl)-piperidin-3-yl]-4-oxo-butyramide] | 1 to 10 µM
Cc1ncc(N2C[C@@H](C)C[C@@H](NC(=O)CCC(=O)O)C2)c2cccnc12 [Compound 567, N-[(3R,5S)-5-Methyl-1-(8-methyl-[1,7]naphthyridin-5-yl)-piperidin-3-yl]-succinamic acid] | > 10 µM
C[C@H]1C[C@@H](NCC(=O)N2CCC2)CN(c2ccc(C(F)(F)F)c3ncccc23)C1 [Compound 568, 1-Azetidin-1-yl-2-[(3R,5S)-5-methyl-1-(8-trifluoromethyl-quinolin-5-yl)-piperidin-3-ylamino]-ethanone] | < 1 µM
CNC(=O)CN[C@@H]1C[C@H](C)CN(c2ccc(C(F)(F)F)c3ncccc23)C1 [Compound 569] | < 1 µM
C[C@H]1C[C@@H](NCC(N)=O)CN(c2ccc(C(F)(F)F)c3ncccc23)C1 [Compound 570] | < 1 µM
C[C@H]1C[C@@H](NCC(=O)O)CN(c2ccc(C(F)(F)F)c3ncccc23)C1 [Compound 571, [(3R,5S)-5-Methyl-1-(8-trifluoromethyl-quinolin-5-yl)-piperidin-3-ylamino]-acetic acid] | 1 to 10 µM
C[C@H]1C[C@@H](NC(=O)C(C)(C)N2CCCCC2)CN(c2ccc(C(F)(F)F)c3ncccc23)C1 [Compound 572] | < 1 µM
C[C@H]1C[C@@H](NC(=O)CN2CCC(C)(C)C2)CN(c2ccc(C(F)(F)F)c3ncccc23)C1 [Compound 573, 2-(3,3-Dimethyl-pyrrolidin-1-yl)-N-[(3R,5S)-5-methyl-1-(8-trifluoromethyl-quinolin-5-yl)-piperidin-3-yl]-acetamide] | < 1 µM
C[C@H]1C[C@@H](NC(=O)C2CCN(C3CC3)CC2)CN(c2ccc(C(F)(F)F)c3ncccc23)C1 [Compound 574, 1-Cyclopropyl-piperidine-4-carboxylic acid [(3R,5S)-5-methyl-1-(8-trifluoromethyl-quinolin-5-yl)-piperidin-3-yl]-amide] | < 1 µM
CCN(CC)C(=O)CCC(=O)N[C@@H]1C[C@H](C)CN(c2ccc(C(F)(F)F)c3ncccc23)C1 [Compound 575, N,N-Diethyl-N′-[(3R,5S)-5-methyl-1-(8-trifluoromethyl-quinolin-5-yl)-piperidin-3-yl]-succinamide] | 1 to 10 µM
CC(C)(C(=O)N[C@@H]1C[C@H](C(F)(F)F)CN(c2ccc(C#N)c3ncccc23)C1)N1CCCCC1 [Compound 576, N-[(3R,5S)-1-(8-Cyano-quinolin-5-yl)-5-trifluoromethyl-piperidin-3-yl]-2-piperidin-1-yl-isobutyramide] | < 1 µM
